Measured values from US9440969B2, “Compounds and methods for kinase modulation, and indications therefor” (PLEXXIKON INC., priority 2009, dated 2016).

Key:
[1] = tested on: A375 melanoma (B-Raf V600E mutation); test: A375 cell growth inhibition (ATPlite luminescence); format: cell-based; settings: Homo sapiens, A-375, 72 h, A375 cells, incubated 3 days with compound
Experimental: Compounds are assessed in a variety of cell based assays. For example human cell lines with B-Raf V600E mutation (A375 melanoma, SKMEL3 melanoma, and COLO205 colon adenocarcinoma), as well as tumorigenic cell lines with wild-type B-RAF (SW620 colon adenocarcinoma) or with Ras mutations (SKMEL2 melanoma and IPC298 melanoma). Similar assays may be used to assess additional tumorigenic cell lines with Ras mutations, including, but not limited to, M202, M207, M243, M244, M296, S117, HCT116, HCT15, DLD1, MiaPaCa, A549, NCI-H23, NCI-H460, HOP62, MDA-MB231, Hs-578T, HL60, MOLT-4, and CCRF-CEM.
On day 1, cells are counted, then centrifuged in a conical tube for 5 minutes at 1000 rpm. The supernatant is removed and cells are re-suspended as follows: • SW620 (ATCC catalog #CCL-27): resuspend in Leibovitz's L-15 medium, 2 mM L-glutamine, 10% fetal bovine serum to 6×10^4 cells/mL. • A375 (ATCC catalog #CRL-1619): resuspend in Dulbecco's modified Eagle's medium, 4 mM L-glutamine, 4.5 g/L D-glucose, 10% fetal bovine serum to 6×10^4 cells/mL. • COLO205 (ATCC catalog #CCL-222): resuspend in RPMI 1640, 2 mM L-glutamine, 1.5 g/L sodium bicarbonate, 4.5 g/L D-glucose, 10 mM HEPES, 1.0 mM sodium pyruvate, 10% fetal bovine serum to 6×10^4 cells/mL. • SKMEL2 (ATCC catalog #HTB-68): resuspend in Minimum Eagle essential medium, 2 mM L-glutamine, 1.5 g/L sodium bicarbonate, 0.1 mM non-essential amino acids, 1.0 mM sodium pyruvate, 10% fetal bovine serum to 6×10^4 cells/mL. • SKMEL3 (ATCC catalog #HTB-69): resuspend in McCoy's 5A medium, 1.5 mM L-glutamine, 15% fetal bovine serum to 6×10^4 cells/mL. • IPC298 (DSMZ catalog #ACC 251): resuspend in RPMI 1640, 2 mM L-glutamine, 10% fetal bovine serum to 6×10^4 cells/mL.
The cells are plated, 50 μL in each well of a 96-well dish (Corning 3610) and incubated at 37° C. in 5% CO2 overnight, cells plated to a final concentration of cells as follows:
On day 2, compound at a maximum concentration of 5 mM is serially diluted 1:3 (e.g. 10 μL with 30 μL dimethyl sulfoxide) for a total of 8 point titration with DMSO as a control. A 1 μL aliquot of each dilution point and control is added to 249 μL growth media and 50 μL is added to a well containing cells, providing 10 μM compound at the maximum concentration point. The cells are incubated for 3 days at 37° C. in 5% CO2.
On day 5, ATPlite 1 step Luminescence Assay System (Perkin Elmer #6016739) is brought to room temperature along with the cell cultures. ATPlite is added 25 μL to each well, shake for 2 minutes, and the cells are incubated at room temperature for 10 minutes, then luminescence is read on Safire reader. The measured luminescence correlates directly with cell number, such that the reading as a function of compound concentration is used to determine the IC50 value.
It is understood that the results of these assays may vary as assay conditions are varied. Inhibition levels determined under the conditions described herein represent a relative activity for the compounds tested under the specific conditions employed. The cell based assays are likely to show variability due to the complexity of the system and the sensitivity thereof to any changes in the assay conditions. […] Results for compounds that are tested and show substantially no inhibition below the highest tested concentration are represented as “-” in the tables below. In some instances, the compounds were not tested in all of the assays, or assay results were not valid, as indicated by NA in the tables below.

[2] = target: CYP3A4(BQ) (Homo sapiens, UniProt P08684); test: CYP3A4 inhibition (substrate BQ); format: in vitro ADME; settings: read-out: Cyp IC50 (μM) 3A4(BQ)
CYP3A4(BQ), sequence (P08684 whole entry): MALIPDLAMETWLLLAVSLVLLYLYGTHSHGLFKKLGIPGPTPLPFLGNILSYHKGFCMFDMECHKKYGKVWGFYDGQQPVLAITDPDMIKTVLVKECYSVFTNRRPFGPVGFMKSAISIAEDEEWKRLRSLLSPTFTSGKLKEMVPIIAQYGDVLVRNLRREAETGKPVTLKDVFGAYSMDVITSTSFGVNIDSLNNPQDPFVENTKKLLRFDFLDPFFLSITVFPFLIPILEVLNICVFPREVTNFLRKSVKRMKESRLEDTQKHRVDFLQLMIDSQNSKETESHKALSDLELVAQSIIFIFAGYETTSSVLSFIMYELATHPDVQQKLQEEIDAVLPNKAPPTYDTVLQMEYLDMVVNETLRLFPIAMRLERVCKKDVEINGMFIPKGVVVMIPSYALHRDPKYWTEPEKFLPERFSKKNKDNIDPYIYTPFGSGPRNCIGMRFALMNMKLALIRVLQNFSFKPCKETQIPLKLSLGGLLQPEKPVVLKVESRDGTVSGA
Experimental: CYP (Cytochrome P450) enzymes are the major drug metabolizing enzymes present in the liver. The inhibition of CYP enzyme activity (IC50) for each of CYP1A2, CYP2C19, CYP2C9, CYP2D6, CYP3A4(BFC) and CYP3A4(BQ) is determined for compounds, where inhibition of metabolism of a known substrate leads to a decrease in the fluorescence of the metabolized product. The fluorescence of the product is monitored as a function of compound concentration. Compounds are dissolved in dimethyl sulfoxide to a concentration of 100 mM. These are diluted […], into 82 μL of acetonitrile. An 11 μL aliquot of this solution is then added to 204 μL of cofactor mix (1.3% NADPH Regeneration system Solution A, 1.04% NADPH Regeneration system Solution B from BD Biosciences, 5% acetonitrile and 0.05% dimethyl sulfoxide). These are then serially diluted 1:1 (160 μL to 160 μL co-factor mix) for a total of 10 points. A 10 μL aliquot of this final mixture is dispensed into 384 well assay plates and incubated for 10 minutes at 37° C. Enzyme and substrate mix (10 μL; 0.5 pmol CYP1A2/5 μM CEC; 1.0 pmol CYP2C9/75 μM MFC; 0.5 pmol CYP2C19/25 μM CEC; 1.5 pmol CYP2D6/1.5 μM AMMC; 1.0 pmol CYP3A4/50 μM BFC; or 1.0 pmol CYP3A4/40 μM BQ) is added to these assay plates. Assay plates are incubated at 37° C. (CYP1A2-15 min; CYP2C9-45 min; CYP2C19, 2D6 and 3A4-30 min) and read in a Tecan Safire 2 plate reader (CYP1A2, 2C19 and 3A4 409 ex/460 em; CYP2C9 and 2D6 409 ex/530 em). The signal versus compound concentration is used to determine the IC50. The enzymes and substrates for this assay are obtained from BD Biosciences.

SMILES | IC50 [1] [µM] | IC50 [2] [µM]
CCCS(=O)(=O)Nc1ccc(F)c(C(=O)c2c[nH]c3ncc(-c4ccc5[nH]ncc5c4)cc23)c1F [P-0001, propane-1-sulfonic acid {2,4-difluoro-3-[5-(1H-indazol-5-yl)-1H-pyrrolo[2,3-b]pyridine-3-carbonyl]-phenyl}-amide] | < 1 | –
CNC(=O)n1ncc2cc(-c3cnc4[nH]cc(C(=O)c5c(F)ccc(NS(=O)(=O)c6cc(F)ccc6F)c5F)c4c3)ccc21 [P-0003, 5-{3-[3-(2,5-Difluoro-benzenesulfonylamino)-2,6-difluoro-benzoyl]-1H-pyrrolo[2,3-b]pyridin-5-yl}-indazole-1-carboxylic acid methylamide] | < 1 | –
CCCS(=O)(=O)Nc1ccc(F)c(C(=O)c2c[nH]c3ncc(-c4ccc5c(cnn5C(C)=O)c4)cc23)c1F [P-0007, propane-1-sulfonic acid {3-[5-(1-acetyl-1H-indazol-5-yl)-1H-pyrrolo[2,3-b]pyridine-3-carbonyl]-2,4-difluoro-phenyl}-amide] | > 1 | –
CCCS(=O)(=O)Nc1ccc(F)c(C(=O)c2c[nH]c3ncc(-c4ccc5nn(C)cc5c4)cc23)c1F [P-0010, Propane-1-sulfonic acid {2,4-difluoro-3-[5-(2-methyl-2H-indazol-5-yl)-1H-pyrrolo[2,3-b]pyridine-3-carbonyl]-phenyl}-amide] | < 1 | > 10
CCCS(=O)(=O)Nc1ccc(F)c(C(=O)c2c[nH]c3ncc(-c4ccc5cn(C)nc5c4)cc23)c1F [P-0011, Propane-1-sulfonic acid {2,4-difluoro-3-[5-(2-methyl-2H-indazol-6-yl)-1H-pyrrolo[2,3-b]pyridine-3-carbonyl]-phenyl}-amide] | < 1 | > 10
CCCS(=O)(=O)Nc1ccc(F)c(C(=O)c2c[nH]c3ncc(-c4ccc5[nH]ccc5c4)cc23)c1F [P-0012, Propane-1-sulfonic acid {2,4-difluoro-3-[5-(1H-indol-5-yl)-1H-pyrrolo[2,3-b]pyridine-3-carbonyl]-phenyl}-amide] | < 1 | > 10
CCCS(=O)(=O)Nc1ccc(F)c(C(=O)c2c[nH]c3ncc(-c4cccc5nn(C)cc45)cc23)c1F [P-0015, Propane-1-sulfonic acid {2,4-difluoro-3-[5-(2-methyl-2H-indazol-4-yl)-1H-pyrrolo[2,3-b]pyridine-3-carbonyl]-phenyl}-amide] | < 1 | > 10
CCCS(=O)(=O)Nc1ccc(F)c(C(=O)c2c[nH]c3ncc(-c4ccc5ncsc5c4)cc23)c1F [P-0020, Propane-1-sulfonic acid [3-(5-benzothiazol-6-yl-1H-pyrrolo[2,3-b]pyridine-3-carbonyl)-2,4-difluoro-phenyl]-amide] | – | > 10
CCCS(=O)(=O)Nc1ccc(F)c(C(=O)c2c[nH]c3ncc(-c4ccc5[nH]cc(C)c5c4)cc23)c1F [P-0023, Propane-1-sulfonic acid {2,4-difluoro-3-[5-(3-methyl-1H-indol-5-yl)-1H-pyrrolo[2,3-b]pyridine-3-carbonyl]-phenyl}-amide] | – | > 10
CCCS(=O)(=O)Nc1ccc(F)c(C(=O)c2c[nH]c3ncc(-c4ccc5cncnc5c4)cc23)c1F [P-0025, Propane-1-sulfonic acid [2,4-difluoro-3-(5-quinazolin-7-yl-1H-pyrrolo[2,3-b]pyridine-3-carbonyl)-phenyl]-amide] | – | > 10
CCCS(=O)(=O)Nc1ccc(F)c(C(=O)c2c[nH]c3ncc(-c4cnn(C5CCNCC5)c4)cc23)c1F [P-1002, Propane-1-sulfonic acid {2,4-difluoro-3-[5-(1-piperidin-4-yl-1H-pyrazol-4-yl)-1H-pyrrolo[2,3-b]pyridine-3-carbonyl]-phenyl}-amide] | – | > 10
O=C(c1c(F)ccc(NS(=O)(=O)c2ccc(C(F)(F)F)cc2)c1F)c1c[nH]c2ncc(-c3cnn(C4CCNCC4)c3)cc12 [P-1004, N-{2,4-Difluoro-3-[5-(1-piperidin-4-yl-1H-pyrazol-4-yl)-1H-pyrrolo[2,3-b]pyridine-3-carbonyl]-phenyl}-4-trifluoromethyl-benzenesulfonamide] | – | > 10
CCCS(=O)(=O)Nc1ccc(F)c(C(=O)c2c[nH]c3ncc(-c4csc(-n5ccnc5C)n4)cc23)c1F [P-1101, Propane-1-sulfonic acid (2,4-difluoro-3-{5-[2-(2-methyl-imidazol-1-yl)-thiazol-4-yl]-1H-pyrrolo[2,3-b]pyridine-3-carbonyl}-phenyl)-amide] | < 1 | –
Cc1ccc(-c2cnc3[nH]cc(C(=O)c4c(F)ccc(NS(=O)(=O)c5cc(F)ccc5F)c4F)c3c2)cn1 [P-1408, N-{2,4-Difluoro-3-[5-(6-methyl-pyridin-3-yl)-1H-pyrrolo[2,3-b]pyridine-3-carbonyl]-phenyl}-2,5-difluoro-benzenesulfonamide] | – | > 10
Cc1ncc(-c2cnc3[nH]cc(C(=O)c4c(F)ccc(NS(=O)(=O)c5cc(F)ccc5F)c4F)c3c2)cn1 [P-1503, N-{2,4-Difluoro-3-[5-(2-methyl-pyrimidin-5-yl)-1H-pyrrolo[2,3-b]pyridine-3-carbonyl]-phenyl}-2,5-difluoro-benzenesulfonamide] | – | > 10
